Patent publication US7732401B2, “Inhibitor of TGF-β activation reaction” (Riken, priority 2007, dated 2010)
Entries after “also recorded” stand apart in the source; their conditions may differ. Where no end group is shown, it is not given here.

Tested on: hepatic stellate cells
Test: Transformation (activation) of cultured hepatic stellate cells on a plastic dish, observed under a microscope
Type: cell-based, rat
Details: for suppression of activation of hepatic stellate cells (morphological change with disappearance of vitamin A-containing oil droplets): Example 1, peptide 1 mM, FIG. 2; for suppression of activation of hepatic stellate cells (morphological change with disappearance of oil droplets containing vitamin A): Example 4, peptide 0.5 mM, FIG. 7
Procedure: According to the method previously reported (Okuno M. et al., Gastroenterology 2001; 120: 1784-1800), hepatic stellate cells were isolated from the liver of male Wistar rats (body weight: 350 to 400 g; Japan Clea), and the isolated cells were then seeded in a concentration of 1×10^6 cells/dish on a 3.5-cm culture plastic dish. Thereafter, the cells were cultured in 1 ml of Dulbecco's modified Eagle medium (DMEM; manufactured by SIGMA) containing 10% fetal calf serum (FCS; manufactured by GIBCO).
From day one of isolation of hepatic stellate cells, they were cultured for 7 days with the following peptides added in the medium; QP peptide (Gln-Ile-Leu-Ser-Lys-Leu-Arg-Leu-Ala-Ser-Pro) (SEQ ID NO: 9); QPA peptide (Gln-Ile-Leu-Ser-Ala-Ala-Ala-Leu-Ala-Ser-Pro) (SEQ ID NO: 10); and a control synthetic peptide consisting of 11 amino acids that is derived from a latent TGF-β1 LAP sequence (Thr-Gly-Val-Val-Arg-Gln-Trp-Leu-Ser-Arg-Gly; this is referred to as T200 peptide) (SEQ ID NO: 11) (please refer to FIG. 1), however anticipated not to influence TGF-β activation reaction because of the sequence being apart from the TGF-β activation control region (Gly51 to Arg110) discovered by the present inventors (International Publication WO2005/023870). […] Influence of each peptide on transformation of hepatic stellate cells (which is also referred to as activation of hepatic stellate cells) induced by culturing them on the plastic dish was observed under a microscope.
A 60 mM aqueous stock solution of each peptide was prepared, and the peptide was then dissolved in a medium to make a final concentration of 1 mM. Until the 3rd day of isolation, the aforementioned cells were treated in a DMEM medium containing 10% FCS. On the 4th day, the medium was exchanged with serum free DMEM containing 0.1% bovine serum albumin (BSA) and each peptide with a final concentration of 1 mM, and the culture was further continued for 2 to 4 days. Thereafter, the culture medium was collected as a conditioned medium, and the amount of active TGF-β1 present in the conditioned medium was measured using an ELISA kit manufactured by PROMEGA. At the same time, the state of the cells was observed under a microscope (DMIRB; manufactured by Leica) and was then photographed.
In accordance with the method described in Example 1, the influence of each of the QP peptide, QPA peptide, QPQ peptide and T200 peptide on transformation of the cultured hepatic stellate cells, which occurs by culturing cells on a plastic dish, was observed.
Each peptide was dissolved in a medium to a final concentration of 0.5 mM (approximately 500 μg/ml). At the 1st day of isolation, the aforementioned cells were treated in a DMEM medium containing 10% FCS. On the 2nd day, the medium was changed with serum free DMEM containing 0.1% BSA and each peptide at a final concentration of 0.5 mM, and the culture was further continued for 2 to 7 days. Thereafter, the culture medium was collected as a conditioned medium, and the amount of active TGF-β1 present in the conditioned medium was then quantitated using an ELISA kit manufactured by PROMEGA. At the same time, the state of the cells was observed under a microscope (DMIRB; manufactured by Leica) and photographed.

Substance	suppression of activation of hepatic stellate cells (morphological change with disappearance of vitamin A-containing oil droplets)	suppression of activation of hepatic stellate cells (morphological change with disappearance of oil droplets containing vitamin A)
N-52QILSAAAAASP62-C (QILSAAALASP) [QPA peptide, mutant of QP peptide with Lys56, Leu57, Arg58 and Leu59 substituted with Ala]	significantly suppressed	significantly suppressed
N-52QILSQQQQASP62-C [QPQ peptide, mutant of QP peptide with Lys56, Leu57, Arg58 and Leu59 substituted with Gln]	–	significantly suppressed; also recorded: strongest suppressing effect
QILSKLRLASP [QP peptide]	weakly suppressing effect	significantly suppressed
TGVVRQWLSRG [T200 peptide, reference compound]	did not exhibit such a suppressing effect	did not exhibit such a suppressing effect
